Reference: patent US20080051387A1, “TETRAHYDROPYRIDO[3,4-D]PYRIMIDINES AND RELATED ANALOGUES” (priority 2006, published 2008)

What follows are compounds tested against T1, chimeric human H3 receptor (Homo sapiens, UniProt Q9Y5N1) (assay: Chimeric human H3 receptor screening GTP binding assay (inhibition of histamine-stimulated GTP-gamma35S binding, Example 8)). Details: 1 h; assay described in Example 8; symbol "!" in column headed Ki; read-out: Ki ("!": percent inhibition of agonist-induced GTP-gammaS binding to H3).
T1 construct: rat Galpha-i2 (Gnai2, rat); made in house; host or cells: Sf9 insect cells (baculovirus); P2 membranes
Type: biochemical
Summary of the method: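 Sf9 membranes co-expressing chimeric human H3 receptor and heterotrimeric G-protein (35 μg protein) incubated 60 min at room temperature with 4 μM compound, 1 μM histamine and 125 pM GTP-gamma35S in pH 7.4 buffer with 10 μM GDP. Filter-bound radioactivity, nonspecific (10 μM GTP-gammaS) subtracted, reported as % inhibition of histamine signal.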

T1 sequence (Q9Y5N1 with tags, fused parts or gaps): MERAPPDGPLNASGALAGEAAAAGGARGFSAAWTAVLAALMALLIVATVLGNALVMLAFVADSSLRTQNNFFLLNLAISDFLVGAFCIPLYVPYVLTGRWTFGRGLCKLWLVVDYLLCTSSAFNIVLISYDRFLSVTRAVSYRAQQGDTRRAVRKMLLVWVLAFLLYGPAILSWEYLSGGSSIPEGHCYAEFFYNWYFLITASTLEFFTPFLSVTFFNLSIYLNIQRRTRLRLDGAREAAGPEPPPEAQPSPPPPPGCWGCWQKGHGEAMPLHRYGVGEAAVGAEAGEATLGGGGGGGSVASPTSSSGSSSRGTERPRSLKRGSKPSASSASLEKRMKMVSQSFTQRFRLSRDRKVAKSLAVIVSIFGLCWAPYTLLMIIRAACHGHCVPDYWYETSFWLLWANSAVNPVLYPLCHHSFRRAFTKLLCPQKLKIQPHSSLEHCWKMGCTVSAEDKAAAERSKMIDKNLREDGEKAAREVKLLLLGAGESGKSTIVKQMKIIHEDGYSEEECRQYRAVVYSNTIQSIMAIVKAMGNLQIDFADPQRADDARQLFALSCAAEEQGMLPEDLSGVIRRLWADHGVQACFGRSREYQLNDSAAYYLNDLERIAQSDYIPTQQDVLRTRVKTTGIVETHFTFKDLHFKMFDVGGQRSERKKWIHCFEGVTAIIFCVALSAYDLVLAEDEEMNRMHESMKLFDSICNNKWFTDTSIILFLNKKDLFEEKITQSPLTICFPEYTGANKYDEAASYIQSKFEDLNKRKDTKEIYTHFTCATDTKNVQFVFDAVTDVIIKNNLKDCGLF

Structure (SMILES)	inhibition at 4 µM [%]
COc1cccc(C(=O)N2CCc3cnc(N4CCN(C5CCC5)CC4)nc3CC2)c1OC [Compound 430, 2-(4-cyclobutylpiperazin-1-yl)-7-(2,3-dimethoxybenzoyl)-6,7,8,9-tetrahydro-5H-pyrimido[4,5-d]azepine]	≥ 90
Cc1cc(C(=O)N2CCc3cnc(N4CCN(C5CCC5)CC4)nc3CC2)c(C(F)(F)F)o1 [Compound 467, 2-(4-cyclobutylpiperazin-1-yl)-7-[5-methyl-2-(trifluoromethyl)-3-furoyl]-6,7,8,9-tetrahydro-5H-pyrimido[4,5-d]azepine]	≥ 90
O=C(/C=C/c1ccc(Cl)cc1)N1CCc2cnc(N3CCN(C4CCC4)CC3)nc2CC1 [Compound 549, 7-[(2E)-3-(4-chlorophenyl)prop-2-enoyl]-2-(4-cyclobutylpiperazin-1-yl)-6,7,8,9-tetrahydro-5H-pyrimido[4,5-d]azepine]	≥ 90
Cc1nc(-c2ccc(C(F)(F)F)cc2)sc1C(=O)N1CCc2cnc(N3CCN(C4CCC4)CC3)nc2CC1 [Compound 524, 2-(4-cyclobutylpiperazin-1-yl)-7-({4-methyl-2-[4-(trifluoromethyl)phenyl]-1,3-thiazol-5-yl}carbonyl)-6,7,8,9-tetrahydro-5H-pyrimido[4,5-d]azepine]	≥ 90

Second part, the compound after the results:

inhibition at 4 µM [%]	Structure (SMILES)
≥ 90	O=C(c1ccc(Cl)s1)N1CCc2cnc(N3CCN(C4CCC4)CC3)nc2CC1 [Compound 453, 7-[(5-chloro-2-thienyl)carbonyl]-2-(4-cyclobutylpiperazin-1-yl)-6,7,8,9-tetrahydro-5H-pyrimido[4,5-d]azepine]
≥ 90	O=C(c1c(F)cccc1C(F)(F)F)N1CCc2cnc(N3CCN(C4CCC4)CC3)nc2CC1 [Compound 434, 2-(4-cyclobutylpiperazin-1-yl)-7-[2-fluoro-6-(trifluoromethyl)benzoyl]-6,7,8,9-tetrahydro-5H-pyrimido[4,5-d]azepine]
≥ 90	CCOc1ncccc1C(=O)N1CCc2cnc(N3CCN(C4CCC4)CC3)nc2CC1 [Compound 543, 2-(4-cyclobutylpiperazin-1-yl)-7-[(2-ethoxypyridin-3-yl)carbonyl]-6,7,8,9-tetrahydro-5H-pyrimido[4,5-d]azepine]
≥ 90	O=C(c1sccc1Br)N1CCc2cnc(N3CCN(C4CCC4)CC3)nc2CC1 [Compound 450, 7-[(3-bromo-2-thienyl)carbonyl]-2-(4-cyclobutylpiperazin-1-yl)-6,7,8,9-tetrahydro-5H-pyrimido[4,5-d]azepine]
≥ 90	CNc1ccc(C(=O)N2CCc3cnc(N4CCN(C5CCC5)CC4)nc3CC2)cc1 [Compound 535, 4-{[2-(4-cyclobutylpiperazin-1-yl)-5,6,8,9-tetrahydro-7H-pyrimido[4,5-d]azepin-7-yl]carbonyl}-N-methylaniline]
≥ 90	O=C(c1cc2ccccc2o1)N1CCc2cnc(N3CCN(C4CCC4)CC3)nc2CC1 [Compound 473, 7-(1-benzofuran-2-ylcarbonyl)-2-(4-cyclobutylpiperazin-1-yl)-6,7,8,9-tetrahydro-5H-pyrimido[4,5-d]azepine]
≥ 90	COc1ccc(Cl)cc1C(=O)N1CCc2cnc(N3CCN(C4CCC4)CC3)nc2CC1 [Compound 420, 7-(5-chloro-2-methoxybenzoyl)-2-(4-cyclobutylpiperazin-1-yl)-6,7,8,9-tetrahydro-5H-pyrimido[4,5-d]azepine]

Same assay, conditions: 1 h; assay of Example 8; symbol "!" in column headed Ki; read-out: percent inhibition of agonist-induced GTP-gammaS binding to H3

Structure (SMILES)	inhibition at 4 µM [%]
Cc1ccc(CN2CCc3cnc(N4CCN(C5CCC5)CC4)nc3CC2)cc1 [Compound 234, 2-(4-cyclobutylpiperazin-1-yl)-7-(4-methylbenzyl)-6,7,8,9-tetrahydro-5H-pyrimido[4,5-d]azepine]	≥ 90
O=C(/C=C/c1ccc(F)cc1Cl)N1CCc2cnc(N3CCN(C4CCC4)CC3)nc2CC1 [Compound 584, 7-[(2E)-3-(2-chloro-4-fluorophenyl)prop-2-enoyl]-2-(4-cyclobutylpiperazin-1-yl)-6,7,8,9-tetrahydro-5H-pyrimido[4,5-d]azepine]	≥ 90
O=C(Cc1cccc(Cl)c1)N1CCc2cnc(N3CCN(C4CCC4)CC3)nc2CC1 [Compound 284, 7-[(3-chlorophenyl)acetyl]-2-(4-cyclobutylpiperazin-1-yl)-6,7,8,9-tetrahydro-5H-pyrimido[4,5-d]azepine]	≥ 90
O=C(C1CCOC1)N1CCc2cnc(N3CCN(C4CCC4)CC3)nc2CC1 (stereo not drawn) [Compound 221, 2-(4-cyclobutylpiperazin-1-yl)-7-(tetrahydrofuran-3-ylcarbonyl)-6,7,8,9-tetrahydro-5H-pyrimido[4,5-d]azepine]	≥ 90
CC(CC(=O)N1CCc2cnc(N3CCN(C4CCC4)CC3)nc2CC1)Sc1ccc(Cl)cc1 (stereo not drawn) [Compound 342, 7-{3-[(4-chlorophenyl)thio]butanoyl}-2-(4-cyclobutylpiperazin-1-yl)-6,7,8,9-tetrahydro-5H-pyrimido[4,5-d]azepine]	≥ 90

The next lines start with the values.

inhibition at 4 µM [%]	Structure (SMILES)
≥ 90	O=C(c1ccc(OC(F)F)cc1)N1CCc2cnc(N3CCN(C4CCC4)CC3)nc2CC1 [Compound 366, 2-(4-cyclobutylpiperazin-1-yl)-7-[4-(difluoromethoxy)benzoyl]-6,7,8,9-tetrahydro-5H-pyrimido[4,5-d]azepine]
≥ 90	COc1ccc(C(=O)N2CCc3cnc(N4CCN(C5CCC5)CC4)nc3CC2)cc1 [Compound 191, 2-(4-cyclobutylpiperazin-1-yl)-7-(4-methoxybenzoyl)-6,7,8,9-tetrahydro-5H-pyrimido[4,5-d]azepine]
≥ 90	O=C(c1ccccc1F)N1CCc2cnc(N3CCN(C4CCC4)CC3)nc2CC1 [Compound 195, 2-(4-cyclobutylpiperazin-1-yl)-7-(2-fluorobenzoyl)-6,7,8,9-tetrahydro-5H-pyrimido[4,5-d]azepine]
≥ 90	O=C(c1ccccn1)N1CCc2cnc(N3CCN(C4CCC4)CC3)nc2CC1 [Compound 199, 2-(4-cyclobutylpiperazin-1-yl)-7-(pyridin-2-ylcarbonyl)-6,7,8,9-tetrahydro-5H-pyrimido[4,5-d]azepine]
≥ 90	CCOc1ccc(C(=O)N2CCc3cnc(N4CCN(C5CCC5)CC4)nc3CC2)cc1 [Compound 368, 2-(4-cyclobutylpiperazin-1-yl)-7-(4-ethoxybenzoyl)-6,7,8,9-tetrahydro-5H-pyrimido[4,5-d]azepine]

Same assay, conditions: symbol ! in Ki; test compound 4 μM, 1 μM histamine; read-out: percent inhibition of agonist-induced GTP-gammaS binding to H3

inhibition at 4 µM [%]	Structure (SMILES)
≥ 90	Cc1ccc(CN2CCc3ncnc(N4CCN(C5CCC5)CC4)c3CC2)cc1 [Compound 149, 4-(4-cyclobutylpiperazin-1-yl)-7-(4-methylbenzyl)-6,7,8,9-tetrahydro-5H-pyrimido[4,5-d]azepine]
≥ 90	Cc1cccc(CN2CCc3ncnc(N4CCN(C5CCC5)CC4)c3CC2)n1 [Compound 153, 4-(4-cyclobutylpiperazin-1-yl)-7-[(6-methylpyridin-2-yl)methyl]-6,7,8,9-tetrahydro-5H-pyrimido[4,5-d]azepine]
≥ 90	O=C(c1ccc(F)cc1)N1CCc2c(ncnc2N2CCN(C3CCC3)CC2)C1 [Compound 30, 4-(4-cyclobutylpiperazin-1-yl)-7-(4-fluorobenzoyl)-5,6,7,8-tetrahydropyrido[3,4-d]pyrimidine]
≥ 90	Fc1cccc(CN2CCc3nc(N4CCN(C5CCC5)CC4)ncc3C2)c1 [Compound 612, 2-(4-cyclobutylpiperazin-1-yl)-6-(3-fluorobenzyl)-5,6,7,8-tetrahydropyrido[4,3-d]pyrimidine]
≥ 90	CC(c1ccc(N2CCCC2)cc1)N1CCc2c(ncnc2N2CCN(C3CCC3)CC2)C1 (stereo not drawn) [Compound 137, 4-(4-cyclobutylpiperazin-1-yl)-7-[1-(4-pyrrolidin-1-ylphenyl)ethyl]-5,6,7,8-tetrahydropyrido[3,4-d]pyrimidine]
≥ 90	CCN1CCc2c(ncnc2N2CCN(C3CCC3)CC2)C1 [Compound 81, 4-(4-cyclobutylpiperazin-1-yl)-7-ethyl-5,6,7,8-tetrahydropyrido[3,4-d]pyrimidine]
≥ 90	O=C(C1CCC1)N1CCc2c(ncnc2N2CCN(C3CCC3)CC2)C1 [Compound 53, 7-(cyclobutylcarbonyl)-4-(4-cyclobutylpiperazin-1-yl)-5,6,7,8-tetrahydropyrido[3,4-d]pyrimidine]
≥ 90	O=C(CCC1CCCC1)N1CCc2c(ncnc2N2CCN(C3CCC3)CC2)C1 [Compound 49, 4-(4-cyclobutylpiperazin-1-yl)-7-(3-cyclopentylpropanoyl)-5,6,7,8-tetrahydropyrido[3,4-d]pyrimidine]
≥ 90	Fc1ccc(CN2CCc3c(ncnc3N3CCN(C4CCC4)CC3)C2)cc1 [Compound 68, 4-(4-cyclobutylpiperazin-1-yl)-7-(4-fluorobenzyl)-5,6,7,8-tetrahydropyrido[3,4-d]pyrimidine]
≥ 90	O=C(Cc1ccccc1)N1CCc2c(ncnc2N2CCN(C3CCC3)CC2)C1 [Compound 50, 4-(4-cyclobutylpiperazin-1-yl)-7-(phenylacetyl)-5,6,7,8-tetrahydropyrido[3,4-d]pyrimidine]
≥ 90	CC(c1ccc2c(c1)OCCO2)N1CCc2c(ncnc2N2CCN(C3CCC3)CC2)C1 (stereo not drawn) [Compound 129, 4-(4-cyclobutylpiperazin-1-yl)-7-[1-(2,3-dihydro-1,4-benzodioxin-6-yl)ethyl]-5,6,7,8-tetrahydropyrido[3,4-d]pyrimidine]

Same assay, conditions: test compound 4 μM, 1 μM histamine; read-out: percent inhibition of agonist-induced GTP-gammaS binding to H3

inhibition at 4 µM [%]	Structure (SMILES)
≥ 90	c1ccc(CN2CCc3c(ncnc3N3CCN(C4CCC4)CC3)C2)cc1 [Compound 1, 7-Benzyl-4-(4-cyclobutylpiperazin-1-yl)-5,6,7,8-tetrahydropyrido[3,4-d]pyrimidine]
